The data set relates to Human lung fibroblasts, WI26 cell. Description: Inhibitory effect on WI26 cells proliferation (CCK-8 assay). In kind it is cell-based. The following applies: for inhibition at 15 µg/mL / inhibition at 30 µg/mL: Homo sapiens, Fibroblast, CCK-8; for toxicity to cell: based on dynamics of the inhibitory effect in FIG. 2; for inhibition at 30 µg/mL: read-out: inhibition rate, WI26 cells proliferation. The protocol:
Cells: Human lung fibroblasts, WI26 cell;
Methods: wherein WI26 cells at 70-80% confluent were trysinized by 0.25% trypsin solution and seeded in 96-well plates at an initial density of 1×10^4 cells/mL. A medium was replaced 24 h later by the fresh with 15 μg/ml compound 1 and 1/1000 DMSO (drug treatment group 1 and its control) or 30 μg/ml compound 2 and 1/1000 DMSO (drug treatment group 2 and its control), then the medium was refreshed and cell viability was measured by using a CCK-8 method at day 0, 1, 2, 3, 4, 5, 6, respectively. Proliferation measurement was applied by adding 100 μL complete medium and 10 μL CCK-8 solutions to each well and incubating for 1 h. OD values of each well were measured at a primary wavelength λ=450 nm by using a Microplate Spectrophotometer. Data are shown as means±standard deviation (SD) of three independent experiments, each performed in triplicate.

Where two headings read alike, the source gives them in different places.

From patent US10017489B2, “Method for preparing benzopyran compound and application thereof in treating pulmonary fibrosis” (SHANGHAI JIAO TONG UNIVERSITY, priority 2013, dated 2018) come the findings set out here.

`CC(C)=CCC[C@]1(C)Oc2ccc(C(N)=O)cc2C[C@@H]1O` [compound 1, xiamenmycin C]: the inhibition at 15 µg/mL (15 μg/ml compound 1, day one) worked out at 13.8%. The inhibition at 15 µg/mL (15 μg/ml compound 1, day six) worked out at 38%. For the same compound, where the note is “normal human lung fibroblasts”, the toxicity to cell entry is “low toxicity”; the “effective concentration to inhibit normal human lung fibroblasts proliferation and activation” value is 15 µg/mL. Further, where the note is “compound 1 at 15 μg/ml vs compound 2 at 30 μg/ml”, the “increase of inhibition compared with drug treatment group 2 (compound 2)” value is reported as around 10%.

Turning to `CC(C)=CCC[C@]1(C)Oc2ccc(C(=O)N[C@H](C(=O)O)[C@@H](C)O)cc2C[C@@H]1O` [compound 2, Xiamenmycin, reference compound], the inhibition at 30 µg/mL is, setting by setting: (30 μg/ml compound 2, day one) 10%; (30 μg/ml compound 2, day six) 28.5%. Also, under “normal human lung fibroblasts”, the toxicity to cell entry is reported as “low toxicity”.
